Data reported in PMC3262893 (Phytochemistry, 2011).
pIC50: −log10 of the molar value. *1 amine or outer side, *2 acyl side, *3 side chain or, on linkers, in order; H or OH if unused. Where a SMILES comes first, the peptide text is derived from it. Bridges are numbered along the chain shown (N, C = ends). [ ]: non-standard residue; d: D form. ξ: configuration not given here. X3 = CC(=O)N(C)C(Cc1ccc(O)cc1)C(=O)OC(CC(O)C(O)CC(C)C)CC(N[*:2])C(O)C(=O)[*:1]; X2 = COc1ccc(CCC(N[*:1])C(=O)[*:2])cc1; d(aIle) = CC[C@H](C)[C@@H](N)C(=O)O; hTyr = N[C@@H](CCc1ccc(O)cc1)C(=O)O; hPhe = N[C@@H](CCc1ccccc1)C(=O)O; X1 = C/C=C(/N[*:1])C(=O)[*:2]; ξhPhe = NC(CCc1ccccc1)C(=O)O; NMeA = CN[C@@H](C)C(=O)O; CO = O=C([*:1])[*:2]

Target: 20S proteasome, human (Homo sapiens, UniProt P28074)
Test: 20S proteasome assay
Format: biochemical
Settings: chymotrypsin-like activity; for 20S proteasome inhibitory activity: at 50 μM; for pIC50: read-out: 20S proteasome inhibition IC50

Structure (SMILES) | 20S proteasome inhibitory activity | pIC50
CC[C@H](C)[C@@H]1NC(=O)[C@H](NC(=O)N[C@H](Cc2ccccc2)C(=O)O)CCCCNC(=O)[C@H](CCc2ccccc2)NC(=O)[C@H](C)N(C)C(=O)[C@H](CCc2ccc(O)cc2)NC1=O [compound 1, Lyngbyaureidamide A] ({dF-CO}-[dK]I[hTyr][NMeA][hPhe]; lactam 1-C) | not active | –
C/C=C1/NC(=O)[C@H](CO)NC(=O)[C@@H]([C@@H](C)CC)NC(=O)[C@@H]2CCCN2C(=O)[C@@H]2CCCN2C(=O)CNC(=O)[C@H](CCC(N)=O)NC(=O)C(O)C(CC(CC(O)C(O)CC(C)C)OC(=O)C(Cc2ccc(O)cc2)N(C)C(C)=O)NC(=O)[C@@H]2CCCN2C(=O)C(CCc2ccccc2)NC(=O)[C@H]([C@@H](C)O)NC1=O (stereo partly shown) [compound 4, Lyngbyazothrin D] (QGPP[d(aIle)]S[X1]T[ξhPhe]P; linker N-C via X3) | – | 4.72
CC[C@H](C)[C@@H]1NC(=O)[C@H](NC(=O)N[C@H](Cc2ccccc2)C(=O)O)CCCCNC(=O)[C@H](Cc2ccccc2)NC(=O)[C@H](C)N(C)C(=O)[C@H](CCc2ccc(O)cc2)NC1=O [compound 2, Lyngbyaureidamide B] ({dF-CO}-[dK]I[hTyr][NMeA]F; lactam 1-C) | not active | –
C/C=C1/NC(=O)[C@H](CO)NC(=O)[C@@H]([C@@H](C)CC)NC(=O)[C@@H]2CCCN2C(=O)[C@@H]2CCCN2C(=O)CNC(=O)[C@H](CCC(N)=O)NC(=O)C(O)C(CC(CC(O)C(O)CC(C)C)OC(=O)C(Cc2ccc(O)cc2)N(C)C(C)=O)NC(=O)[C@@H]2CCCN2C(=O)C(CCc2ccc(OC)cc2)NC(=O)[C@H]([C@@H](C)O)NC1=O (stereo partly shown) [compound 3, Lyngbyazothrin C] (QGPP[d(aIle)]S[X1]T[X2]P; linker N-C via X3) | – | 5.15
